Results reported in ChEMBL document CHEMBL2331478, “Evaluation of constituents of Piper retrofractum fruits on neurotrophic activity” (J Nat Prod, 2013).
The source made the active and inactive calls. No cut-off for these calls is given here.

Experiments:
[1] = system: PC-12; assay: Potentiation of NGF-induced neurite outgrowth in rat PC12 cells at 0.1 to 10 uM after 4 days using methylene blue staining by phase-contrast microscopy; assay type: functional, cell-based
[2] = system: PC-12; assay: Potentiation of NGF-induced neurite outgrowth in rat PC12 cells after 4 days using methylene blue staining by phase-contrast microscopy; assay type: functional, cell-based

With O=C(/C=C/CCCCCCCC/C=C/c1ccc2c(c1)OCO2)N1CCCCC1 the Activity [1] was “inactive”.

With O=C(CCC(=O)c1ccc2c(c1)OCO2)C(=O)N1CCCCC1 the Activity [2] was “Dose-dependent effect”.

For CCCCC/C=C\CCCC/C=C/C=C/C(=O)NCC(C)C, the Activity [1] was “inactive”.

O=C(/C=C/C=C/c1ccc2c(c1)OCO2)N1CCCCC1 was tested, and the Activity [1] was “inactive”.
